Source: patent publication US11827616B2, “Heterocyclic compounds as pesticides” (Discovery Purchaser Corporation, priority 2018, dated 2023)
Like-named read-outs stand apart in the source and are kept apart here.

How the values were obtained:
Format in all cases: in vivo
Ctenocephalides felis [1] = assay: Ctenocephalides felis in vitro contact test with adult cat fleas; conditions: application rate 5 μg/cm^2 (=500 g/ha); after 48 h
Experimental: Ctenocephalides felis—In Vitro Contact Tests with Adult Cat Fleas
(§1) For the coating of the test tubes, 9 mg of active compound are first dissolved in 1 ml of acetone p.a. and then diluted to the desired concentration with acetone p.a. 250 μl of the solution are distributed homogeneously on the inner walls and the base of a 25 ml glass tube by turning and rocking on an orbital shaker (rocking rotation at 30 rpm for 2 h). With 900 ppm of active compound solution and internal surface area 44.7 cm^2, given homogeneous distribution, an area-based dose of 5 μg/cm^2 is achieved.
After the solvent has evaporated off, the tubes are populated with 5-10 adult cat fleas (Ctenocephalides felis), sealed with a perforated plastic lid and incubated in a horizontal position at room temperature and ambient humidity. After 48 h, efficacy is determined. To this end, the tubes are stood upright and the fleas are knocked to the base of the tube. Fleas which remain motionless at the base or move in an uncoordinated manner are considered to be dead or moribund.
100% efficacy means that all the fleas were dead or moribund. 0% efficacy means that no fleas were harmed.

Rhipicephalus sanguineus = Rhipicephalus sanguineus in vitro contact test with adult brown dog ticks; conditions: application rate 5 μg/cm^2 (=500 g/ha); after 48 h
Experimental: Rhipicephalus sanguineus—In Vitro Contact Tests with Adult Brown Dog Ticks
as §1
After the solvent has evaporated off, the tubes are populated with 5-10 adult dog ticks (Rhipicephalus sanguineus), sealed with a perforated plastic lid and incubated in a horizontal position in the dark at room temperature and ambient humidity. After 48 h, efficacy is determined. To this end, the ticks are knocked to the base of the tube and incubated on a hotplate at 45-50° C. for not more than 5 min. Ticks which remain motionless on the base or move in such an uncoordinated manner that they are unable to deliberately avoid the heat by climbing upwards are considered to be dead or moribund.
An efficacy of 100% means that all the ticks were dead or moribund. 0% efficacy means that none of the ticks were harmed.

Boophilus microplus = Boophilus microplus injection test; conditions: for pest or weed control at 0.02 mg: Rhipicephalus microplus, 168 h
Experimental: Boophilus microplus—Injection Test
(§2) Solvent: dimethyl sulfoxide
To produce a suitable active compound formulation, 10 mg of active compound are mixed with 0.5 ml of solvent and the concentrate is diluted to the desired concentration with solvent.
1 μl of the active compound solution is injected into the abdomen of 5 engorged adult female cattle ticks (Boophilus microplus). The animals are transferred into dishes and kept in a climate-controlled room.
Efficacy is assessed after 7 days by laying of fertile eggs. Eggs which are not visibly fertile are stored in a climate-controlled cabinet until the larvae hatch after about 42 days. An efficacy of 100% means that none of the ticks has laid any fertile eggs; 0% means that all the eggs are fertile.

Lucilia cuprina = Lucilia cuprina test; conditions: application rate 100 ppm; L1 larvae; after 2 days
Experimental: as §2
To produce a suitable active compound formulation, 10 mg of active compound are mixed with 0.5 ml of dimethyl sulfoxide, and the concentrate is diluted with water to the desired concentration.
About 20 L1 larvae of the Australian sheep blowfly (Lucilia cuprina) are transferred into a test vessel containing minced horsemeat and the active compound formulation of the desired concentration.
After 2 days, the kill in % is determined. 100% means that all the larvae have been killed; 0% means that no larvae have been killed.

Phaedon cochleariae = Phaedon cochleariae spray test; conditions: for efficacy: after 7 days
Experimental: Phaedon cochleariae—Spray Test
(§3) Solvent: 78.0 parts by weight of acetone • • 1.5 parts by weight of dimethylformamide
(§4) Emulsifier: alkylaryl polyglycol ether
(§5) To produce a suitable active compound formulation, 1 part by weight of active compound is dissolved with the specified parts by weight of solvent and made up to the desired concentration with water containing an emulsifier concentration of 1000 ppm. To produce further test concentrations, the formulation is diluted with emulsifier-containing water.
Discs of Chinese cabbage leaves (Brassica pekinensis) are sprayed with an active compound formulation of the desired concentration and, after drying, populated with larvae of the mustard beetle (Phaedon cochleariae).
After 7 days, the efficacy in % is determined. 100% means that all the beetle larvae have been killed; 0% means that no beetle larvae have been killed.

Spodoptera frugiperda = Spodoptera frugiperda spray test; conditions: for efficacy: application rate 500 g/ha, after 7 days
Experimental: Spodoptera frugiperda—Spray Test
as §3, §4, §5
Leaf discs of maize (Zea mays) are sprayed with an active compound formulation of the desired concentration and, after drying, populated with caterpillars of the fall armyworm (Spodoptera frugiperda).
After 7 days, the efficacy in % is determined. 100% means that all the caterpillars have been killed; 0% means that no caterpillar has been killed.

Tetranychus urticae = Tetranychus urticae spray test, OP-resistant; conditions: after 6 days
Experimental: Tetranychus urticae—Spray Test, OP-Resistant
Solvent: 78.0 Parts by Weight of Acetone • • 1.5 parts by weight of dimethylformamide
as §4, §5
Discs of bean leaves (Phaseolus vulgaris) infested with all stages of the greenhouse red spider mite (Tetranychus urticae) are sprayed with an active compound formulation of the desired concentration.
After 6 days, the efficacy in % is determined. 100% means that all the spider mites have been killed; 0% means that no spider mites have been killed.

Ctenocephalides felis [2] = assay: Ctenocephalides felis oral test; conditions: application rate 100 ppm in citrated cattle blood; after 2 days
Experimental: Ctenocephalides felis—Oral Test
as §2
To produce a suitable active compound formulation, 10 mg of active compound are mixed with 0.5 ml of dimethyl sulfoxide. Dilution with citrated cattle blood gives the desired concentration.
About 20 unfed adult cat fleas (Ctenocephalides felis) are placed into a chamber which is closed at the top and bottom with gauze. A metal cylinder whose bottom end is closed with parafilm is placed onto the chamber. The cylinder contains the blood/active compound formulation, which can be imbibed by the fleas through the parafilm membrane.
After 2 days, the kill in % is determined. 100% means that all of the fleas have been killed; 0% means that none of the fleas have been killed.

[3] = system: Anopheles gambiae strain RSPH (homozygot kdr); assay: Anopheles test (ANPHGB surface treatment); conditions: read-out: efficacy (mortality in %)
Experimental: Anopheles Test (ANPHGB Surface Treatment)
Solvent: acetone+2000 ppm rapeseed oil methyl ester (RME)
To produce an appropriate active compound formulation, the active compound is dissolved in the solvent (2 mg/ml). The active compound formulation is pipetted onto a glazed tile and, after it has dried off, adult mosquitoes of the species Anopheles gambiae strain RSPH (homozygot kdr) are placed onto the treated tile. The exposure time is 30 minutes.
24 hours after contact with the treated surface, mortality in % is determined. 100% means that all mosquitoes have been killed; 0% means that none of the mosquitoes have been killed.

[4] = application rate 20 μg/animal, after 7 days

| SMILES | efficacy (fleas dead or moribund) (Ctenocephalides felis [1]) [%] | efficacy (ticks dead or moribund) (Rhipicephalus sanguineus) [%] | efficacy (laying of fertile eggs) (Boophilus microplus; [4]) [%] | efficacy (kill in %) (Lucilia cuprina) [%] | efficacy (Phaedon cochleariae; application rate 500 g/ha) [%] | efficacy (Spodoptera frugiperda) [%] | efficacy (Tetranychus urticae; application rate 500 g/ha) [%] | pest or weed control at 0.02 mg (Boophilus microplus; read-out: efficacy (laying of fertile eggs), application rate 20 μg/animal, after 7 days) [%] | efficacy (kill in %) (Ctenocephalides felis [2]) [%] | pest or weed control at 500 g/ha (Phaedon cochleariae; Phaedon cochleariae, 168 h, read-out: efficacy) [%] | pest or weed control at 500 g/ha (Spodoptera frugiperda; Spodoptera frugiperda, 168 h, read-out: efficacy) [%] | mortality at 20 mg/m2 [3] [%] | pest or weed control at 0.02 mg (Boophilus microplus; application rate 20 μg/animal, after 7 days, read-out: efficacy (laying of fertile eggs)) [%] | mortality at 20 mg/m2 ([3]; application rate 20 mg/m^2, exposure 30 minutes, 24 hours after contact) [%] | mortality at 100 mg/m2 ([3]; application rate 100 mg/m^2, exposure 30 minutes, 24 hours after contact) [%] | efficacy (Phaedon cochleariae; application rate 100 g/ha) [%] | efficacy (Tetranychus urticae; application rate 100 g/ha) [%] |
| --- | --- | --- | --- | --- | --- | --- | --- | --- | --- | --- | --- | --- | --- | --- | --- | --- | --- |
| CON(C)CCOc1cnc(COc2ccc(F)c(-c3cccc(Cl)c3)c2)c(F)c1 [Example 49] | 100 | 100 | 100 | 100 | 100 | 100 | 100 |  |  |  |  |  |  |  |  |  |  |
| CN(CC#N)CCOc1cnc(COc2ccc3oc4ccccc4c3c2)c(F)c1 [Example 29, {[2-({6-[(dibenzo[b,d]furan-2-yloxy)methyl]-5-fluoropyridin-3-yl}oxy)ethyl](methyl)amino}acetonitrile] |  |  |  | 100 |  |  |  | 100 | 100 | 100 | 100 | 80 to 100 |  |  |  |  |  |
| CON(C)CCOc1cnc(COc2ccc(Cl)c(-c3cccc(Cl)c3)c2)c(F)c1 [Example 56] | 100 | 100 | 100 | 100 | 100 | 100 | 100 |  |  |  |  |  |  |  |  |  |  |
| CON(C)CCOc1ccc(COc2cccc(-c3ccccc3)c2)cn1 [Example 13] | 100 | 100 | 100 |  | 100 |  | 90 |  |  |  |  |  |  |  |  |  |  |
| CON(C)CCOc1ccc(COc2cccc3c(Cl)c(Cl)ccc23)cn1 [Example 1] | 100 | 100 | 100 | 100 | 100 | 100 | 100 |  |  |  |  |  |  |  |  |  |  |
| CON(C)CCOc1cnc(COc2ccc(Cl)c(-c3cccc(F)c3)c2)c(F)c1 [Example 61] | 100 | 100 | 100 | 100 |  | 100 | 90 |  | 90 |  |  |  |  |  |  |  |  |
| CN(CC#N)CCOc1cnc(COc2ccc(Cl)c3ccccc23)c(F)c1 [Example 27] |  | 100 | 100 |  | 100 | 100 | 90 |  |  |  |  |  |  |  |  |  |  |
| CON(C)CCOc1ccc(COc2cccc3c(Cl)c(Cl)ccc23)nc1F [Example 17, 2-[(6-{[(5,6-dichloro-1-naphthyl)oxy]methyl}-2-fluoropyridin-3-yl)oxy]-N-methoxy-N-methylethanamine] |  |  |  |  |  |  |  |  |  |  |  |  | 100 | 80 to 100 | 80 to 100 |  |  |
| CON(C)CCOc1ccc(COc2ccc(F)c(-c3cccc(Cl)c3)c2)nc1 [Example 65] | 100 | 100 | 100 | 90 |  | 100 | 100 |  |  |  |  |  |  |  |  |  |  |
| CON(C)CCOc1cnc(COc2ccc(Cl)c(-c3ccccc3)c2)c(F)c1 [Example 63] | 100 | 100 | 100 | 100 |  | 100 | 100 |  | 95 |  |  |  |  |  |  | 100 |  |
| CON(C)CCOc1ccc(COc2cccc(-c3cccc(OC(F)(F)F)c3)c2)nc1 [Example 64] | 100 | 100 | 100 |  | 100 | 83 | 90 |  |  |  |  |  |  |  |  |  |  |
| CON(C)CCOc1cnc(COc2ccc(Cl)c(OC(F)(F)F)c2)c(F)c1 [Example 72] | 100 | 100 | 100 | 100 |  | 83 | 100 |  | 95 |  |  |  |  |  |  |  |  |
| CON(C)CCOc1cnc(COc2ccc(Cl)c(I)c2)c(F)c1 [Example 76] | 100 | 100 | 100 |  | 100 |  |  |  |  |  |  |  |  |  |  |  | 90 |
| CON(C)CCOc1cnc(COc2cccc(-c3ccccc3)c2)c(F)c1 [Example 70] | 100 | 100 | 100 | 100 | 100 |  | 90 |  |  |  |  |  |  |  |  |  |  |
| CC(C)N(C)CCOc1cnc(COc2cccc3c(Cl)c(Cl)ccc23)c(F)c1 [Example 44] | 100 |  | 100 |  | 100 | 100 |  |  |  |  |  |  |  |  |  |  | 90 |
| CON(C)CCOc1cnc(COc2ccc(Br)c3ccccc23)c(F)c1 [Example 21] | 100 | 100 | 100 | 100 | 100 | 100 | 90 |  | 80 |  |  |  |  |  |  |  |  |
